Patent publication US10858362B2, “Imidazopyrazinones as PDE1 inhibitors” (H. Lundbeck A/S, priority 2015, dated 2020)

What was measured:
Type in all cases: biochemical
PDE1A = PDE1A (Homo sapiens (Human), UniProt P54750); test: PDE1 inhibition assay, PDE1A; details: for IC50: 15 nM tritium labelled cAMP; for inhibition at 10 µM: read-out: PDE1A, % inhibition (at 10 μM); for inhibition at 1 µM: read-out: PDE1A, % inhibition (at 1 μM)
Description: (§1) Reactions were initiated by addition of the cyclic nucleotide substrate, and reactions were allowed to proceed for 1 h at room temperature before being terminated through mixing with 20 μL (0.2 mg) yttrium silicate SPA beads (PerkinElmer).

PDE1B = PDE1B (Homo sapiens (Human), UniProt Q01064); test: PDE1 inhibition assay, PDE1B; details: for IC50: 15 nM tritium labelled cAMP
PDE1B, sequence (Q01064 whole entry): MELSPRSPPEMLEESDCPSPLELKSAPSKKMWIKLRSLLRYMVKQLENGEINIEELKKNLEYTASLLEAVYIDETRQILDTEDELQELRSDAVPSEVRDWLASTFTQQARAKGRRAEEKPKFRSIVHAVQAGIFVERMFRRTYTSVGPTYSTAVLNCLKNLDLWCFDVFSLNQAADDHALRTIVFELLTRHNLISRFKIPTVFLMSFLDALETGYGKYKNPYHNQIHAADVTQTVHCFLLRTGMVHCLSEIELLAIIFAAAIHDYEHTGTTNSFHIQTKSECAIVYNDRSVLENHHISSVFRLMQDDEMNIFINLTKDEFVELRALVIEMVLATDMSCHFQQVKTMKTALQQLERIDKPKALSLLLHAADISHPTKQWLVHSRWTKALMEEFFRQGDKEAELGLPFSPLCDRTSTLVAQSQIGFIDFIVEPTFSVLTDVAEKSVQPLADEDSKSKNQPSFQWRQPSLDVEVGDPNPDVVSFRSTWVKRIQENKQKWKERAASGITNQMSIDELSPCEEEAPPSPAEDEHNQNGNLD
Description: as §1, with “(PerkinElmer). The beads were allowed to settle for 1 h in the dark before the plates were counted in a Wallac 1450 Microbeta counter.” for “(PerkinElmer).”

PDE1C = PDE1C (Homo sapiens (Human), UniProt Q14123); test: PDE1 inhibition assay, PDE1C; details: for IC50: 15 nM tritium labelled cAMP; for inhibition at 1 µM: read-out: PDE1C, % inhibition (at 1 μM)
PDE1C, sequence (Q14123 whole entry): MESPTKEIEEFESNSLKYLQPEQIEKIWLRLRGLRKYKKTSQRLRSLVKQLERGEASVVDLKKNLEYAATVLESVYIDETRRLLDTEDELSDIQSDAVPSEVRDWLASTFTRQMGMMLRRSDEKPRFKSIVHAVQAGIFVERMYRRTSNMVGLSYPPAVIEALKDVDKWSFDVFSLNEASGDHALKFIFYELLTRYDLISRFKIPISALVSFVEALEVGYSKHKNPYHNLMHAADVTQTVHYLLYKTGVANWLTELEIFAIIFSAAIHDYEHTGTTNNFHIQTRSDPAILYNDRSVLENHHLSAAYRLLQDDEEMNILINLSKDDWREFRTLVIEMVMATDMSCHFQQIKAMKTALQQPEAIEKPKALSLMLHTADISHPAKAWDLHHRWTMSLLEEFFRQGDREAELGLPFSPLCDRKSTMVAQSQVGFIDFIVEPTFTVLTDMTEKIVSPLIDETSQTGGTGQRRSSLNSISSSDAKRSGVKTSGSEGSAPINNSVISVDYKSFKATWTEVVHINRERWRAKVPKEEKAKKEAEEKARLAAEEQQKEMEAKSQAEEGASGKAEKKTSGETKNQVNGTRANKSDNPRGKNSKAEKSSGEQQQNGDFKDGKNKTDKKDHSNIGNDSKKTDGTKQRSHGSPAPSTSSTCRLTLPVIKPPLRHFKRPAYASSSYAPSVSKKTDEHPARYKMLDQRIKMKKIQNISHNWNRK
Description: as §1, with “(PerkinElmer). The beads were allowed to settle for 1 h in the dark before the plates were counted in a Wallac 1450 Microbeta counter.” for “(PerkinElmer).”

PDE9 = PDE9 (Homo sapiens (Human), UniProt O76083); test: PDE9 inhibition assay
PDE9, sequence (O76083 whole entry): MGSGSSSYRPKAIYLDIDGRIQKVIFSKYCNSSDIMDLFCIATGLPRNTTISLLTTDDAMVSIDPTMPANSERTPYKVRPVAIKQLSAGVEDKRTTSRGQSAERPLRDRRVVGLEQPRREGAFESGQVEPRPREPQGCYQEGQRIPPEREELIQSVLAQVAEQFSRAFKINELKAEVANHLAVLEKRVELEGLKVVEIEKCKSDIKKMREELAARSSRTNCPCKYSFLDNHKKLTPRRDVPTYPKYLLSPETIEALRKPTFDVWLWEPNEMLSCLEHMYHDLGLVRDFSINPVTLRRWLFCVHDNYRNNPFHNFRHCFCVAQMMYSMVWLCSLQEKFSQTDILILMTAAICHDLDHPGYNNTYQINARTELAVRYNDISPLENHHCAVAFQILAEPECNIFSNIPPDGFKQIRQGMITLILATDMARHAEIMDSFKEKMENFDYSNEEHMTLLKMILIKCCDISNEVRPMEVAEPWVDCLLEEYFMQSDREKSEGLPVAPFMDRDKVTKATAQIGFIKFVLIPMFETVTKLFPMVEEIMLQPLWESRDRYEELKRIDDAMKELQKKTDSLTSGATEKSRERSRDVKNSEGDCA
Description: A PDE9 assay may for example, be performed as follows: The assay is performed in 60 μL samples containing a fixed amount of the relevant PDE enzyme (sufficient to convert 20-25% of the cyclic nucleotide substrate), a buffer (50 mM HEPES7.6; 10 mM MgCl2; 0.02% Tween20), 0.1 mg/ml BSA, 225 pCi of ^3H-labelled cyclic nucleotide substrate, tritium labeled cAMP to a final concentration of 5 nM and varying amounts of inhibitors. Reactions are initiated by addition of the cyclic nucleotide substrate, and reactions are allowed to proceed for one hr at room temperature before being terminated through mixing with 15 μL 8 mg/mL yttrium silicate SPA beads (Amersham). The beads are allowed to settle for one hr in the dark before the plates are counted in a Wallac 1450 Microbeta counter.
In the context of the present invention the assay was performed in 60 μL assay buffer (50 mM HEPES pH 7.6; 10 mM MgCl2; 0.02% Tween20) containing enough PDE9 to convert 20-25% of 10 nM ^3H-cAMP and varying amounts of inhibitors. Following a 1 hr incubation the reactions were terminated by addition of 15 μL 8 mg/mL yttrium silicate SPA beads (Amersham). The beads were allowed to settle for one hr in the dark before the plates were counted in a Wallac 1450 Microbeta counter.

PDE1A, sequence (P54750 whole entry): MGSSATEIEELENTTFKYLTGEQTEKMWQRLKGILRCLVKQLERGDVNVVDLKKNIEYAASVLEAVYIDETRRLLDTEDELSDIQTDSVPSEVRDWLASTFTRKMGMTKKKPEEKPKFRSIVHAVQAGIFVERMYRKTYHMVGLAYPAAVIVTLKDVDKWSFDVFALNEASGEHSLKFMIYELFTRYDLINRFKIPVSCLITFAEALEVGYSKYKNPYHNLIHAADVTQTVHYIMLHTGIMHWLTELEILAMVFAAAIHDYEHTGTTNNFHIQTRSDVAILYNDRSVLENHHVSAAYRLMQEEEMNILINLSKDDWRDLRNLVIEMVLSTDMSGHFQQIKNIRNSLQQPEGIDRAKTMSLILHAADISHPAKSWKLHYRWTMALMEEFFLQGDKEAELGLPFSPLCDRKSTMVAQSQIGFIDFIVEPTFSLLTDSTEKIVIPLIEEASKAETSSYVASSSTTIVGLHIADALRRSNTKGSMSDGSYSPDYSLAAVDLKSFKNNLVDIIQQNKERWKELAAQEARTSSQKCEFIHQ

Compound | IC50 (PDE1A) | IC50 (PDE1B) | IC50 (PDE1C) | inhibition at 10 µM (PDE9) | other results
O=c1c2cnc(C3CC3)n2ccn1CC1CCCCCC1 [Example 13, 7-(Cycloheptylmethyl)-3-cyclopropylimidazo[1,5-a]pyrazin-8(7H)-one] | 87 nM | 50 nM | 62 nM | 7% | –
Cc1cn2c([C@@H]3CCCCO3)ncc2c(=O)n1Cc1cccc(F)c1 (single isomer, unassigned; isomer 1) [30, isomer 1] | – | 615 nM | 225 nM | – | PDE1A, % inhibition (at 1 μM) (PDE1A; at 1 μM): 20%; % inhibition of PDE9 at 10 microM (PDE9): −11%
Cc1cn2c([C@]3(C)CCOC3)ncc2c(=O)n1Cc1cccc(F)c1 (single isomer, unassigned; isomer 1) [32, isomer 1] | 257 nM | 122 nM | 22 nM | – | % inhibition of PDE9 at 10 microM (PDE9): −1%
COc1ccc(Cn2c(C)cn3c(C4COC(C)C4)ncc3c2=O)cc1 (centres unmarked) [Example 89, 7-(4-methoxybenzyl)-6-methyl-3-(5-methyltetrahydrofuran-3-yl)imidazo[1,5-a]pyrazin-8(7H)-one] | – | 128 nM | 303 nM | 1% | inhibition at 10 µM (PDE1A): 65%
Cc1cn2c(C3(F)CCOCC3)ncc2c(=O)n1Cc1cccc(F)c1 [Example 29, 7-(3-fluorobenzyl)-3-(4-fluorotetrahydro-2H-pyran-4-yl)-6-methylimidazo[1,5-a]pyrazin-8(7H)-one] | 493 nM | 249 nM | 50 nM | 16% | –
O=c1c2cnc(C3CCOCC3)n2ccn1CC1CCCCCC1 [Example 12, 7-(Cycloheptylmethyl)-3-(tetrahydro-2H-pyran-4-yl)imidazo[1,5-a]pyrazin-8(7H)-one] | 30 nM | 21 nM | 16 nM | 12% | –
O=c1c2cnc(C3CCOCC3)n2ccn1Cc1cccc(F)c1 [Example 9, 7-(3-Fluorobenzyl)-3-(tetrahydro-2H-pyran-4-yl)imidazo[1,5-a]pyrazin-8(7H)-one] | – | – | 170 nM | 2% | inhibition at 2 µM (PDE1A; read-out: PDE1A, % inhibition (at 2 μM)): 68%; inhibition at 2 µM (PDE1B; read-out: PDE1B, % inhibition (at 2 μM)): 90%
COc1ccc(Cn2c(C)cn3c([C@@H](C)c4ccccc4)ncc3c2=O)cc1 [Example 71, (S)-7-(4-methoxybenzyl)-6-methyl-3-(1-phenylethyl)imidazo[1,5-a]pyrazin-8(7H)-one] | 211 nM | 238 nM | 538 nM | 13% | –
Cc1cn2c(C3(C)CCOC3)ncc2c(=O)n1Cc1cccc(F)c1 (single isomer, unassigned; isomer 2) [32, isomer 2] | 401 nM | 170 nM | 40 nM | – | % inhibition of PDE9 at 10 microM (PDE9): 16%
COc1ccc(Cn2c(C)cn3c(C(C)(C)O)ncc3c2=O)cc1 [Example 86, 3-(2-hydroxypropan-2-yl)-7-(4-methoxybenzyl)-6-methylimidazo[1,5-a]pyrazin-8(7H)-one] | 193 nM | 118 nM | 214 nM | -11% | –
COc1ccc(Cn2c(C)cn3c(C4(C)CCN(S(N)(=O)=O)C4)ncc3c2=O)cc1 (centres unmarked) [Example 91, 3-(7-(4-methoxybenzyl)-6-methyl-8-oxo-7,8-dihydroimidazo[1,5-a]pyrazin-3-yl)-3-methylpyrrolidine-1-sulfonamide] | 181 nM | 185 nM | 417 nM | 20% | –
Cc1cn2c([C@@H]3C[C@H]3C)ncc2c(=O)n1Cc1cccc(F)c1 (single isomer, unassigned; isomer 2) [35, isomer 2] | 364 nM | 166 nM | 41 nM | – | % inhibition of PDE9 at 10 microM (PDE9): 15%
COc1ccc(Cn2c(C)cn3c(C4CCOCC4C)ncc3c2=O)cc1 (centres unmarked) [Example 69, 7-(4-methoxybenzyl)-6-methyl-3-(3-methyltetrahydro-2H-pyran-4-yl)imidazo[1,5-a]pyrazin-8(7H)-one] | 13 nM | 8 nM | 24 nM | 2% | –
COc1ccc(Cn2c(CC3CCCC3)cn3c(C4CCOCC4)ncc3c2=O)cc1 [Example 92, 6-(cyclopentylmethyl)-7-(4-methoxybenzyl)-3-(tetrahydro-2H-pyran-4-yl)imidazo[1,5-a]pyrazin-8(7H)-one] | 71 nM | 11 nM | 79 nM | 57% | –
COc1ccc(Cn2c(C)cn3c([C@H](C)c4ccccc4)ncc3c2=O)cc1 [Example 72, (R)-7-(4-methoxybenzyl)-6-methyl-3-(1-phenylethyl)imidazo[1,5-a]pyrazin-8(7H)-one] | 90 nM | 12 nM | 43 nM | 9% | –

More lines, main results first:

IC50 (PDE1A) | IC50 (PDE1B) | IC50 (PDE1C) | inhibition at 10 µM (PDE9) | Compound | other results
– | – | – | 4% | Cc1cn2c(C3CCOCC3)ncc2c(=O)n1C(C)C [Example 61, 7-isopropyl-6-methyl-3-(tetrahydro-2H-pyran-4-yl)imidazo[1,5-a]pyrazin-8(7H)-one] | inhibition at 10 µM (PDE1A): 4%; inhibition at 10 µM (PDE1B; read-out: PDE1B, % inhibition (at 10 μM)): 50%; inhibition at 10 µM (PDE1C; read-out: PDE1C, % inhibition (at 10 μM)): 47%
– | 155 nM | – | 15% | Cc1cn2c(C3CCOCC3)ncc2c(=O)n1Cc1ccc(OCC2CC2)cc1 [Example 42, 7-(4-(cyclopropylmethoxy)benzyl)-6-methyl-3-(tetrahydro-2H-pyran-4-yl)imidazo[1,5-a]pyrazin-8(7H)-one] | inhibition at 1 µM (PDE1A): 50%; inhibition at 1 µM (PDE1C): 55%
199 nM | 36 nM | 46 nM | 1% | COc1ccc(Cn2c(C)cn3c(C4CCOCC4)ncc3c2=O)cc1Cl [Example 51, 7-(3-chloro-4-methoxybenzyl)-6-methyl-3-(tetrahydro-2H-pyran-4-yl)imidazo[1,5-a]pyrazin-8(7H)-one] | –
– | 388 nM | – | 10% | CC(=O)Nc1ccc(Cn2c(C)cn3c(C4CCOCC4)ncc3c2=O)cc1 [Example 47, N-(4-((6-methyl-8-oxo-3-(tetrahydro-2H-pyran-4-yl)imidazo[1,5-a]pyrazin-7(8H)-yl)methyl)phenyl)acetamide] | inhibition at 1 µM (PDE1A): 0%; inhibition at 1 µM (PDE1C): 10%
– | 1310 nM | 496 nM | 18% | Cc1cn2c(C3CCOCC3)ncc2c(=O)n1Cc1cscn1 [Example 80, 6-methyl-3-(tetrahydro-2H-pyran-4-yl)-7-(thiazol-4-ylmethyl)imidazo[1,5-a]pyrazin-8(7H)-one] | inhibition at 10 µM (PDE1A): 72%
183 nM | 82 nM | 17 nM | -3% | Cc1cn2c(C3CCOCC3)ncc2c(=O)n1CC1CCCC1 [Example 63, 7-(cyclopentylmethyl)-6-methyl-3-(tetrahydro-2H-pyran-4-yl)imidazo[1,5-a]pyrazin-8(7H)-one] | –
333 nM | 93 nM | 33 nM | – | Cc1cn2c([C@H]3CCCOC3)ncc2c(=O)n1Cc1cccc(F)c1 (single isomer, unassigned; isomer 2) [100, isomer 2] | % inhibition of PDE9 at 10 microM (PDE9): −21%
58 nM | 115 nM | 15 nM | 15% | O=c1c2cnc(C3CCOCC3)n2cc(Br)n1Cc1cccc(F)c1 [Example 15, 6-Bromo-7-(3-fluorobenzyl)-3-(tetrahydro-2H-pyran-4-yl)imidazo[1,5-a]pyrazin-8(7H)-one] | –
